This note sets out measurements from patent publication US20240409935A1, “Atg8ylation coordinates stress granule formation and mTOR inactivation in response to lysosomal damage” (priority 2023, published 2024).

Test [1] has as its system DCP1a puncta (P-bodies) in U2OS cells. In words: HCM quantification of DCP1a puncta (P-body formation) in U2OS cells. Format: cell-based, human. The following applies: 2 mM LLOMe for 30 min.
In test [2] the test system is G3BP1 puncta (stress granules) in U2OS cells. The test can be described thus: HCM quantification of G3BP1 puncta (stress granule formation) in U2OS cells. It is filed as cell-based, human.
For test [3], the system named is G3BP1 puncta in BMM (bone-marrow-derived macrophages). The test can be described thus: HCM quantification of G3BP1 puncta in BMM. The following applies: 2 mM LLOMe for 2 h. It is filed as cell-based, murine. As for the experimental part: Three groups of proteins are labeled (ESCRT components in green, autophagy factors in blue and stress granule components in purple). […] The dotted orange line indicates the significance cut-off (P<0.05). […] The significant increased proteins in LysoIP LC/MS/MS were analyzed by STRING functional protein association networks. […] Strength, Log 10(observed/expected) describes how large the enrichment effect is. […] TMEM192-2×FLAG, control. […] U20S cells Were treated with Earle's Balanced Salt Solution (EBSS), 4 mM LOMe, 2 mM LLOMe, 200 μM GPN, or 400 μg/mL silica for 30 min. White masks, algorithm-defined cell boundaries (primary objects); red masks, computer-identified G3BP1 puncta (target objects). […] The level of phosphorylation of eIF2α (S51) is quantified based on three independent experiments. […] The level of ATF4 and phosphorylation of eIF2α (S51) and 4EBP1 (S65) are quantified based on three independent experiments. […]
The inventors tested whether lysosomal damage induces SG formation using the conventional marker of SGs G3BP1 (Jain et al., 2016; Kedersha et al., 2005; Yang et al., 2020). […] For unbiased quantification, the inventors employed high content microscopy (HCM), which depends on epifluorescence mode to capture all cellular profiles in a volume. […] In all cell lines and primary cells tested, SG formation was observed upon lysosomal damage and quantified by HCM.

The test system of a further test is NUFIP2. In words: Confocal microscopy of NUFIP2 localisation in Huh7 cells. The following applies: 2 mM LLOMe for 30 min. Format: cell-based, human. As for the experimental part:
Huh7 cells Were treated with 2 mM LLOMe for 30 min and stained for endogenous G3BP1 and NUFIP2. Scale bar, 5 μm. […] The sequence in red (SEQ ID NO: 1), predicted NLS in NUFIP2, was deleted for generating NUFIP2ΔNLS. […] FIG. 4SG show the quantification by HCM of overlaps between mTOR and LAMP2 in Gal8WT^HeLa or Gal8KO^HeLa cells treated with 2 mM LLOMe for 30 min. White masks, algorithm-defined cell boundaries. Yellow masks, computer-identified overlap of mTOR and LAMP2. […] Red masks, computer-identified G3BP1 puncta. Ctrl, control (untreated cells). Data, means±SEM; HCM: n≥3 (each experiment: 500 valid primary objects/cells per Well, ≥5 Well s/sample). †p≥0.05 (not significant), **p<0.01, ANOVA. See also FIG. 3 and FIG. 4.

In another test the test system is PKR. The test can be described thus: Immunoblot analysis of PKR (T446) phosphorylation in U2OS cells. Format: cell-based, human. To be noted: 2 mM LLOMe for 30 min. An excerpt:
The level of phosphorylation of eIF2α (S51) is quantified based on three independent experiments. […] Red masks, computer-identified G3BP1 puncta. […] Ctrl, control (untreated cells). Data, means±SEM; HCM: n≥3 (each experiment: 500 valid primary objects/cells per Well, ≥5 Well s/sample). *p<0.05, **p<0.01, ANOVA. See also FIG. 2S.

A further test has as its system ATF4. The test can be described thus: Immunoblot analysis of ATF4 in U2OS cells. Format: cell-based, human. To be noted: 2 mM LLOMe, indicated time points. A general note: Immunoblotting shows a protein as a band on a membrane.

In the case of `COC(=O)[C@H](CC(C)C)NC(=O)[C@@H](N)CC(C)C` [LLOMe, L-leucyl-L-leucine methyl ester], the “P-body formation (DCP1a marker)” value in test [1] is recorded as “did not induce P-body”. Further, the “number of SGs upon LLOMe washout” value in test [2] (2 mM LLOMe 30 min followed by 1 h washout) is on record as “reduction in the number of SGs”. In addition, the “SG formation response (G3BP1 puncta)” value in test [2] (agent alone for 30 min (2 mM LLOMe, 200 μM GPN, 400 μg/mL silica, 4 mM LOMe)) is “robust SG formation response”. Besides, in test [3], the “SG formation (G3BP1 puncta)” value is “SGs Were detected”. Further, the “NUFIP2 localisation upon lysosomal damage” value with NUFIP2 is given as “NUFIP2 translocated from the nucleus into the cytosol”. Besides, in the test with PKR, the “PKR activation assessed by phosphorylation at Thr446” value is reported as “PKR was activated”. In addition, the ATF4 expression entry with ATF4 is reported as “increased ATF4 expression over time”.
